Measurements reported in publication PMC10006169, “A phase I trial of LXS196, a protein kinase C (PKC) inhibitor, for metastatic uveal melanoma” (British Journal of Cancer, 2023).

System: patients with MUM
Test: Adverse events regardless of study drug relationship
Type: in vivo, human
Description: Routine safety assessments, including laboratory assessments, physical examinations, vital signs and electrocardiograms (ECGs), were conducted at regular intervals throughout the study and more frequently as needed following patient assessment by the treating physician. Adverse events (AEs) were assessed continuously according to the National Cancer Institute Common Terminology Criteria for Adverse Events (NCI-CTCAE) v4.03.

CC1(N)CCN(c2cccnc2NC(=O)c2nc(-c3ncccc3C(F)(F)F)cnc2N)CC1 [LXS196]
ALT increased, all grades (100 mg QD): 0 n (%)
ALT increased, grade ≥3 (100 mg QD): 0 n (%)
AST increased, all grades (100 mg QD): 0 n (%)
AST increased, grade ≥3 (100 mg QD): 0 n (%)
Abdominal pain upper, all grades (100 mg QD): 0 n (%)
Abdominal pain upper, grade ≥3 (100 mg QD): 0 n (%)
Asthenia, all grades (100 mg QD): 0 n (%)
Asthenia, grade ≥3 (100 mg QD): 0 n (%)
Blood creatinine increased, all grades (100 mg QD): 0 n (%)
Blood creatinine increased, grade ≥3 (100 mg QD): 0 n (%)
Constipation, all grades (100 mg QD): 1 (33.3) n (%)
Constipation, grade ≥3 (100 mg QD): 0 n (%)
Decreased appetite, all grades (100 mg QD): 0 n (%)
Decreased appetite, grade ≥3 (100 mg QD): 0 n (%)
Dermatitis acneiform, all grades (100 mg QD): 0 n (%)
Dermatitis acneiform, grade ≥3 (100 mg QD): 0 n (%)
Diarrhoea, all grades (100 mg QD): 2 (66.7) n (%)
Diarrhoea, grade ≥3 (100 mg QD): 0 n (%)
Dry skin, all grades (100 mg QD): 0 n (%)
Dry skin, grade ≥3 (100 mg QD): 0 n (%)
Fatigue, all grades (100 mg QD): 0 n (%)
Fatigue, grade ≥3 (100 mg QD): 0 n (%)
Hypotension, all grades (100 mg QD): 0 n (%)
Hypotension, grade ≥3 (100 mg QD): 0 n (%)
Nasopharyngitis, all grades (100 mg QD): 0 n (%)
Nasopharyngitis, grade ≥3 (100 mg QD): 0 n (%)
Nausea, all grades (100 mg QD): 2 (66.7) n (%)
Nausea, grade ≥3 (100 mg QD): 0 n (%)
Neutropenia, all grades (100 mg QD): 0 n (%)
Neutropenia, grade ≥3 (100 mg QD): 0 n (%)
Oedema peripheral, all grades (100 mg QD): 1 (33.3) n (%)
Oedema peripheral, grade ≥3 (100 mg QD): 0 n (%)
Patients with ≥1 AE, all grades (100 mg QD): 3 (100) n (%)
Patients with ≥1 AE, grade ≥3 (100 mg QD): 0 n (%)
Rash, all grades (100 mg QD): 0 n (%)
Rash, grade ≥3 (100 mg QD): 0 n (%)
Vomiting, all grades (100 mg QD): 2 (66.7) n (%)
Vomiting, grade ≥3 (100 mg QD): 0 n (%)
ALT increased, all grades (200 mg BID): 1 (16.7) n (%)
ALT increased, grade ≥3 (200 mg BID): 0 n (%)
AST increased, all grades (200 mg BID): 1 (16.7) n (%)
AST increased, grade ≥3 (200 mg BID): 0 n (%)
Abdominal pain upper, all grades (200 mg BID): 0 n (%)
Abdominal pain upper, grade ≥3 (200 mg BID): 0 n (%)
Asthenia, all grades (200 mg BID): 1 (16.7) n (%)
Asthenia, grade ≥3 (200 mg BID): 0 n (%)
Blood creatinine increased, all grades (200 mg BID): 3 (50.0) n (%)
Blood creatinine increased, grade ≥3 (200 mg BID): 0 n (%)
Constipation, all grades (200 mg BID): 1 (16.7) n (%)
Constipation, grade ≥3 (200 mg BID): 0 n (%)
Decreased appetite, all grades (200 mg BID): 1 (16.7) n (%)
Decreased appetite, grade ≥3 (200 mg BID): 0 n (%)
Dermatitis acneiform, all grades (200 mg BID): 1 (16.7) n (%)
Dermatitis acneiform, grade ≥3 (200 mg BID): 0 n (%)
Diarrhoea, all grades (200 mg BID): 3 (50.0) n (%)
Diarrhoea, grade ≥3 (200 mg BID): 0 n (%)
Dry skin, all grades (200 mg BID): 1 (16.7) n (%)
Dry skin, grade ≥3 (200 mg BID): 0 n (%)
Fatigue, all grades (200 mg BID): 0 n (%)
Fatigue, grade ≥3 (200 mg BID): 0 n (%)
Hypotension, all grades (200 mg BID): 0 n (%)
Hypotension, grade ≥3 (200 mg BID): 0 n (%)
Nasopharyngitis, all grades (200 mg BID): 1 (16.7) n (%)
Nasopharyngitis, grade ≥3 (200 mg BID): 0 n (%)
Nausea, all grades (200 mg BID): 3 (50.0) n (%)
Nausea, grade ≥3 (200 mg BID): 0 n (%)
Neutropenia, all grades (200 mg BID): 1 (16.7) n (%)
Neutropenia, grade ≥3 (200 mg BID): 0 n (%)
Oedema peripheral, all grades (200 mg BID): 2 (33.3) n (%)
Oedema peripheral, grade ≥3 (200 mg BID): 0 n (%)
Patients with ≥1 AE, all grades (200 mg BID): 6 (100) n (%)
Patients with ≥1 AE, grade ≥3 (200 mg BID): 3 (50.0) n (%)
Rash, all grades (200 mg BID): 0 n (%)
Rash, grade ≥3 (200 mg BID): 0 n (%)
Vomiting, all grades (200 mg BID): 0 n (%)
Vomiting, grade ≥3 (200 mg BID): 0 n (%)
ALT increased, all grades (200 mg QD): 1 (25.0) n (%)
ALT increased, grade ≥3 (200 mg QD): 0 n (%)
AST increased, all grades (200 mg QD): 0 n (%)
AST increased, grade ≥3 (200 mg QD): 0 n (%)
Abdominal pain upper, all grades (200 mg QD): 0 n (%)
Abdominal pain upper, grade ≥3 (200 mg QD): 0 n (%)
Asthenia, all grades (200 mg QD): 1 (25.0) n (%)
Asthenia, grade ≥3 (200 mg QD): 0 n (%)
Blood creatinine increased, all grades (200 mg QD): 1 (25.0) n (%)
Blood creatinine increased, grade ≥3 (200 mg QD): 0 n (%)
Constipation, all grades (200 mg QD): 3 (75.0) n (%)
Constipation, grade ≥3 (200 mg QD): 0 n (%)
Decreased appetite, all grades (200 mg QD): 1 (25.0) n (%)
Decreased appetite, grade ≥3 (200 mg QD): 0 n (%)
Dermatitis acneiform, all grades (200 mg QD): 0 n (%)
Dermatitis acneiform, grade ≥3 (200 mg QD): 0 n (%)
Diarrhoea, all grades (200 mg QD): 2 (50.0) n (%)
Diarrhoea, grade ≥3 (200 mg QD): 0 n (%)
Dry skin, all grades (200 mg QD): 0 n (%)
Dry skin, grade ≥3 (200 mg QD): 0 n (%)
Fatigue, all grades (200 mg QD): 0 n (%)
Fatigue, grade ≥3 (200 mg QD): 0 n (%)
Hypotension, all grades (200 mg QD): 0 n (%)
Hypotension, grade ≥3 (200 mg QD): 0 n (%)
Nasopharyngitis, all grades (200 mg QD): 0 n (%)
Nasopharyngitis, grade ≥3 (200 mg QD): 0 n (%)
Nausea, all grades (200 mg QD): 2 (50.0) n (%)
Nausea, grade ≥3 (200 mg QD): 1 (25.0) n (%)
Neutropenia, all grades (200 mg QD): 0 n (%)
Neutropenia, grade ≥3 (200 mg QD): 0 n (%)
Oedema peripheral, all grades (200 mg QD): 1 (25.0) n (%)
Oedema peripheral, grade ≥3 (200 mg QD): 0 n (%)
Patients with ≥1 AE, all grades (200 mg QD): 4 (100) n (%)
Patients with ≥1 AE, grade ≥3 (200 mg QD): 3 (75.0) n (%)
Rash, all grades (200 mg QD): 0 n (%)
Rash, grade ≥3 (200 mg QD): 0 n (%)
Vomiting, all grades (200 mg QD): 2 (50.0) n (%)
Vomiting, grade ≥3 (200 mg QD): 1 (25.0) n (%)
